Measured values as given in US7205304B2, “Sulfonyl-Derivatives as novel inhibitors of histone deacetylase” (Janssen Pharmaceutica N.V., priority 2002, dated 2007).
≈ marks a conversion by molar mass, not a printed value. Read-outs that look alike come from different tables or passages of the source.

Columns and labels:
[1] = system: A2780 ovarian carcinoma cells; assay: Antiproliferative activity on A2780 cells (MTT); format: cell-based, human; details: Homo sapiens, four days of incubation, read-out: Cellular activity pIC50 (converted)
Procedure, shortened: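 A2780 ovarian carcinoma cells were seeded at 1500 cells/well and exposed to compound for four days, with DMSO ≤0.1%. Viability was measured by MTT (2 h, 37° C) and expressed as a percentage of untreated controls after blank subtraction. Initial single-point testing was at 10^−6 M, then full curves gave pIC50.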

[2] = Kinetic solubility in aqueous media (nephelometry); format: physicochemical; details: phosphate citrate buffer, pH 7.4, aqueous buffer, kinetic from dmso stock, phosphate citrate buffer pH 7.4, turbidity of three dilution steps; read-out: Solubility Score
Procedure, shortened: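 DMSO stock (5 mM) diluted in three consecutive steps into phosphate citrate buffer pH 7.4, in triplicate; turbidity of each dilution read by nephelometry immediately after the last step. Compounds ranked into 3 classes: score 3 if first dilution clear, 2 if first unclear but second clear.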

[3] = system: A 2780 ovarium carcinoma cells; assay: A2780 mouse xenograft model; format: in vivo; details: orally 10, 20 and 40 mpk once daily, day 4 to day 32; two independent studies; maximal inhibition once at 20 mpk, once at 40 mpk
Experimental: Immunodeficient mice were injected subcutaneously with A 2780 ovarium carcinoma cells (10^7cells/200 μl/mouse). Subsequently they were orally treated with 10, 20 and 40 mpk of compound once daily between day 4 and day 32. The compound was dissolved in 0.9% NaCl, 20% β-cyclodextrine. On day 32 tumours were harvested and individual tumour weight of each mouse was determined. Each experiment included 10 mice.

[4] = target: histone deacetylase (HeLa nuclear extracts); assay: In vitro assay for inhibition of histone deacetylase; format: biochemical; details: [3H]acetylated histone H4 peptide substrate
[5] = not given; remark: listed apart in the source

Row | SMILES | % metabolism of the compound after 15 min of incubation (human, 15 min, 5 μM) | solubility [2] | Enzyme activity pIC50 [4] | IC50 ([1]; A2780, 96 h) | melting point [5] | IC50 ([1]; 96 h) | antitumoural effect (tumour weight on day 32) [3] | % metabolism of the compound after 15 min of incubation (5 μM compound, microsomes 1 mg/ml, NADPH-generating system)
1 | COc1cc(N)c(Cl)cc1C(=O)NC1CCN(CCCOc2ccc(F)cc2)CC1OC (stereo not shown) [Cisapride] | 45% | – | – | – | – | – | – | –
2 | O=C(NO)c1cnc(N2CCN(S(=O)(=O)c3ccc4ccccc4c3)CC2)nc1 [Compound 6] | – | 75.8 to 454 µM (≈ 31.3 to 188 µg/mL) | – | – | – | 46.1 nM | strong antitumoural effect at all doses | –
3 | CCCO [propanol] | – | – | – | – | – | – | – | 25%

Continued, in another order:

Row | % metabolism of the compound after 15 min of incubation (human, 15 min, 5 μM) | solubility [2] | Enzyme activity pIC50 [4] | IC50 ([1]; A2780, 96 h) | melting point [5] | SMILES | IC50 ([1]; 96 h) | antitumoural effect (tumour weight on day 32) [3] | % metabolism of the compound after 15 min of incubation (5 μM compound, microsomes 1 mg/ml, NADPH-generating system)
4 | – | < 75.8 µM | 6.491 | 1010 nM | > 260 °C | O=C(NO)c1ccc(N2CCN(S(=O)(=O)c3ccc4ccccc4c3)CC2)nn1 [Compound 120] | – | – | –
5 | – | > 454 µM | 6.833 | 2770 nM | 220 °C | O=C(NO)c1cnc(N2CCN(S(=O)(=O)c3ccc4ccccc4c3)C(CO)C2)nc1 (stereo not shown) [Compound 121] | – | – | –
6 | – | > 454 µM | 6.787 | 2580 nM | 114 °C | CN(C)CC1CN(c2ncc(C(=O)NO)cn2)CCN1S(=O)(=O)c1ccc2ccccc2c1 (stereo not shown) [Compound 123] | – | – | –
7 | – | < 75.8 µM | 8.456 | 103 nM | 190.7 °C | CN(C)Cc1ccccc1-c1ccc(S(=O)(=O)N2CCN(c3ncc(C(=O)NO)cn3)CC2)cc1 [Compound 126] | – | – | –
8 | – | > 454 µM | 7.107 | 206 nM | > 260 °C | O=C(NO)c1cnc(N2CCN(S(=O)(=O)c3ccc(-c4cccc(CCO)c4)cc3)CC2)nc1 [Compound 129] | – | – | –
